From PubChem BioAssay AID2086 (NMMLSC, 2009) come the findings set out here.

In this assay the target is Induced myeloid leukemia cell differentiation protein Mcl-1 (Homo sapiens) (UniProt Q07820). Briefly: regulators of Bim-Mcl-1 interaction, confirmation, biochemical, bead-based flow cytometry, multiplex, HTS hits (AID 2086). Conditions: for response, inhibition or activation: at 100 µM (top of the series).

The source made the active and inactive calls. How the calls were made is not given here.

Chain of Induced myeloid leukemia cell differentiation protein Mcl-1 (Homo sapiens) (Q07820 whole entry, looked up): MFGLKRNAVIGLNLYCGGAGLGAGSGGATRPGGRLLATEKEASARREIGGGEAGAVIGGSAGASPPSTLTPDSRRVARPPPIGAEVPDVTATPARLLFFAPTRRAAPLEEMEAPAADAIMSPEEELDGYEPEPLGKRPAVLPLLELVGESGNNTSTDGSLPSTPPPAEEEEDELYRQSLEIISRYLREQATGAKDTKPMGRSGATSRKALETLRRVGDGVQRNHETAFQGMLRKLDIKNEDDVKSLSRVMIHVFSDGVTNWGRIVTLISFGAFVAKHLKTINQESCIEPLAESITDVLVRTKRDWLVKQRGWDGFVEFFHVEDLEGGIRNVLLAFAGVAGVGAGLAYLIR

For the compound `Cc1ccc(-c2cc(-c3ccc(F)cc3)c(C#N)c(N)n2)o1`, the “response, inhibition or activation” value was “inactive”. As for `CCOc1ccccc1CNc1ccc(O)cc1`, the “response, inhibition or activation” value was “inactive”. For the compound `Cc1ccc(-c2cc(C(=O)Nc3nccs3)c3ccccc3n2)o1`, the “response, inhibition or activation” value was “inactive”.

Take `CCN(CC)c1ccc(NC(=O)c2ccccc2F)cc1S(=O)(=O)Nc1ccccc1OC`: the “response, inhibition or activation” value was “inactive”. As for `CCN(CC)c1ccc(NC(=O)COc2ccccc2C)cc1S(=O)(=O)Nc1ccccc1OC`, the “response, inhibition or activation” value was “inactive”. With `COc1ccccc1-n1c(-c2ccccc2)c[nH]c1=S`, the “response, inhibition or activation” value is “inactive”.

In the case of `C=CS(=O)(=O)c1sc(Cl)c(N2CCOCC2)c1[N+](=O)[O-]`, the “response, inhibition or activation” value was “inactive”. Regarding `O=C1NC(=O)C(=Cc2ccc(-c3cc(Cl)ccc3[N+](=O)[O-])o2)C(=O)N1`, the “response, inhibition or activation” value was “inactive”. Same read-out and setting: next, `COc1ccccc1NC1=C(NC(C)=O)C(=O)c2ccccc2C1=O`: “inactive”; `O=C1C(Cl)=C(N2CCN(c3ccccc3[N+](=O)[O-])CC2)C(=O)c2ccccc21`: “inactive”; `CNC(CC(=O)c1ccc([N+](=O)[O-])cc1)C(Cl)(Cl)Cl` (stereo unspecified): “inactive”. As for `O=C(/C=C/c1ccc(-c2ccccc2[N+](=O)[O-])o1)c1ccccc1`, the “response, inhibition or activation” value is “inactive”. Turning to `CN(CCO)c1cc(Sc2nc3ccccc3s2)c2nonc2c1[N+](=O)[O-]`, the “response, inhibition or activation” value is “inactive”. In the case of `Clc1nc(NCc2cccnc2)nc(N2CCOCC2)n1`, the “response, inhibition or activation” value was “inactive”. Regarding `COc1ccc(N2C(=O)C(Cl)=C(NC3C(=O)N(c4ccccc4)N(C)C3C)C2=O)cc1` (stereo unspecified), the EC50 result is “inactive”. As to `O=C1c2ccccc2C(=O)N1CN(C(=O)COc1ccc(Cl)cc1Cl)c1cccc(F)c1`, the “response, inhibition or activation” value was “inactive”. `CCN1C(=O)/C(=C\C=C2/C=CC=CN2CC)SC1=S`: the “response, inhibition or activation” value was “inactive”.

Regarding `Cc1cc(-c2cc(-c3ccc(Cl)cc3)nc(N)c2C#N)co1`, the “response, inhibition or activation” value is “inactive”. For `O=C1/C(=C\c2ccco2)NC(=S)N1c1ccccc1`, the “response, inhibition or activation” value is “inactive”. `Cc1nnc(Sc2cc(NCCO)c([N+](=O)[O-])c3nonc23)s1`: the “response, inhibition or activation” value is “inactive”. The same measure, in the same setting: for `O=c1c2c(n3nnnc3n1Cc1ccccc1)-c1ccccc1CC21CCCC1` the value was “inactive”; for `S=c1[nH]cc(-c2ccccc2)n1-c1ccccc1`, “inactive”; for `CC(=O)Nc1ccc(-n2cc(-c3ccccc3)[nH]c2=S)cc1`, “inactive”.

Turning to `O=C(Nc1nnc(COc2ccc(Cl)cc2)s1)c1ccco1`, the “response, inhibition or activation” value is “inactive”. Still for that read-out and setting: for `O=[N+]([O-])c1c(NCCCO)cc(Sc2nc3ccccc3s2)c2nonc12` the value was “inactive”; for `Oc1ccc(NCc2ccccc2OCc2ccccc2)cc1`, “inactive”. On to `CC(=O)OCCCNc1cc(Sc2nc3ccccc3s2)c2nonc2c1[N+](=O)[O-]`, for which the “response, inhibition or activation” value is “inactive”. For the compound `CCN(CC)C(=O)COC(=O)c1cc(-c2ccco2)nc2ccccc12`, the “response, inhibition or activation” value was “inactive”. Take `COc1cc(CNc2ccc3[nH]c(=O)[nH]c3c2)cc(Br)c1OCC(=O)NC(C)(C)C`: the “response, inhibition or activation” value was “inactive”. Take `Cc1ccc(-c2cc(-c3ccc(C)o3)nc(N)c2C#N)cc1`: the “response, inhibition or activation” value is “inactive”. For the compound `CCN(CC)c1ccc(NC(=O)c2ccccc2Br)cc1S(=O)(=O)Nc1ccccc1OC`, the “response, inhibition or activation” value is “inactive”.
